# Assay results taken from patent US10597388B2, “Pyridazinone herbicides” (FMC CORPORATION, priority 2014, dated 2020).
# Assays:
# Experiment in all cases: Test D controlled growth environment herbicide test, pre- and postemergence
# Assay type in all cases: in vivo
# [1] = tested on: foxtail, green (green foxtail, Setaria viridis)
# In short: (§1)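 Pre-emergence: seeds sown in silt loam soil were sprayed with compound in a non-phytotoxic solvent mix containing surfactant. Post-emergence: plants at 2 to 18 cm (1- to 4-leaf stage) in peat moss/vermiculite medium got the same formulation. Visual 0–100 rating versus controls after 14 to 21 d.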
# [2] = tested on: lambsquarters (Chenopodium album)
# In short: as §1
# [3] = tested on: bluegrass (annual bluegrass, Poa annua)
# In short: as §1
# [4] = tested on: mustard, wild (wild mustard, Sinapis arvensis)
# In short: as §1
# [5] = tested on: bromegrass, downy (downy bromegrass, Bromus tectorum)
# In short: as §1
# [6] = tested on: kochia (Kochia scoparia)
# In short: as §1
# [7] = tested on: barley, winter (winter barley, Hordeum vulgare)
# In short: as §1
# [8] = tested on: chamomile (scentless chamomile, Matricaria inodora)
# In short: as §1
# [9] = tested on: galium (catchweed bedstraw, Galium aparine)
# In short: as §1
# [10] = tested on: canarygrass (Phalaris minor)
# In short: as §1
# [11] = tested on: barley, spring (spring barley, Hordeum vulgare)
# In short: as §1
# [12] = tested on: speedwell (bird's-eye speedwell, Veronica persica)
# In short: as §1
# [13] = tested on: oat, wild (wild oat, Avena fatua)
# In short: as §1
# [14] = Postemergence, 31 g ai/ha, scale 0 to 100 (0 no effect, 100 complete control)
# [15] = Postemergence, 125 g ai/ha, visual rating on scale 0 (no effect) to 100 (complete control), 14 to 21 d
# [16] = Postemergence, 250 g ai/ha, scale 0 to 100 (0 no effect, 100 complete control)
# [17] = Preemergence, 125 g ai/ha, scale 0 to 100 (0 no effect, 100 complete control)
# [18] = Preemergence, 250 g ai/ha, scale 0 to 100 (0 no effect, 100 complete control)
# [19] = postemergence, 62 g ai/ha, scale 0 to 100, 0 no effect, 100 complete control
# [20] = Preemergence, 62 g ai/ha, scale 0 to 100 (0 no effect, 100 complete control)
smiles,measurement,setting,value
CCOC(=O)Oc1c(C)nn(C)c(=O)c1-c1c(C)sc2c(C)cc(C)cc12 [Compound 83],"Foxtail, Green plant response rating",[1]; [14],75
same,"Plant response rating, Foxtail, Green",[1]; [15],90
same,"Plant response rating, Foxtail, Green",[1]; [16],100
same,"Plant response rating (scale of 0 to 100), Foxtail, Green","[1]; Preemergence, 31 g ai/ha",15
same,"Plant response rating (scale of 0 to 100), Foxtail, Green","[1]; Preemergence, 62 g ai/ha",50
same,"Plant response rating, Foxtail, Green",[1]; [17],100
same,"Plant response rating, Foxtail, Green",[1]; [18],100
same,"Plant response rating, Foxtail, Green",[1]; [19],90
same,Lambsquarters plant response rating,[2]; [14],95
same,"Plant response rating, Lambsquarters",[2]; [15],100
same,"Plant response rating, Lambsquarters",[2]; [16],100
same,"Plant response rating (scale of 0 to 100), Lambsquarters","[2]; Preemergence, 31 g ai/ha",95
same,"Plant response rating (scale of 0 to 100), Lambsquarters","[2]; Preemergence, 62 g ai/ha",65
same,"Plant response rating, Lambsquarters",[2]; [17],100
same,"Plant response rating, Lambsquarters",[2]; [18],100
same,"Plant response rating, Lambsquarters",[2]; [19],100
same,Bluegrass plant response rating,[3]; [14],0
same,"Plant response rating, Bluegrass",[3]; [15],15
same,"Plant response rating, Bluegrass",[3]; [16],25
same,"Plant response rating (scale of 0 to 100), Bluegrass","[3]; Preemergence, 31 g ai/ha",15
same,"Plant response rating, Bluegrass",[3]; [20],15
same,"Plant response rating, Bluegrass",[3]; [17],35
same,"Plant response rating, Bluegrass",[3]; [18],35
same,"Plant response rating, Bluegrass",[3]; [19],10
same,"Mustard, Wild plant response rating",[4]; [14],25
same,"Plant response rating, Mustard, Wild",[4]; [15],65
same,"Plant response rating, Mustard, Wild",[4]; [16],70
same,"Plant response rating (scale of 0 to 100), Mustard, Wild","[4]; Preemergence, 31 g ai/ha",0
same,"Plant response rating (scale of 0 to 100), Mustard, Wild","[4]; Preemergence, 62 g ai/ha",0
same,"Plant response rating, Mustard, Wild",[4]; [17],35
same,"Plant response rating, Mustard, Wild",[4]; [18],25
same,"Plant response rating, Mustard, Wild",[4]; [19],25
same,"Bromegrass, Downy plant response rating",[5]; [14],25
same,"Plant response rating, Bromegrass, Downy",[5]; [15],50
same,"Plant response rating, Bromegrass, Downy",[5]; [16],70
same,"Plant response rating (scale of 0 to 100), Bromegrass, Downy","[5]; Preemergence, 31 g ai/ha",20
same,"Plant response rating, Bromegrass, Downy",[5]; [20],30
same,"Plant response rating, Bromegrass, Downy",[5]; [17],60
same,"Plant response rating, Bromegrass, Downy",[5]; [18],40
same,"Plant response rating, Bromegrass, Downy",[5]; [19],35
same,Kochia plant response rating,[6]; [14],70
same,"Plant response rating, Kochia",[6]; [15],80
same,"Plant response rating, Kochia",[6]; [16],90
same,"Plant response rating (scale of 0 to 100), Kochia","[6]; Preemergence, 31 g ai/ha",0
same,"Plant response rating (scale of 0 to 100), Kochia","[6]; Preemergence, 62 g ai/ha",0
same,"Plant response rating, Kochia",[6]; [17],30
same,"Plant response rating, Kochia",[6]; [18],50
same,"Plant response rating, Kochia",[6]; [19],75
same,"Barley, Winter plant response rating",[7]; [14],0
same,"Plant response rating, Barley, Winter",[7]; [15],0
same,"Plant response rating, Barley, Winter",[7]; [16],15
same,"Plant response rating (scale of 0 to 100), Barley, Winter","[7]; Preemergence, 31 g ai/ha",0
same,"Plant response rating, Barley, Winter",[7]; [20],0
same,"Plant response rating, Barley, Winter",[7]; [17],0
same,"Plant response rating, Barley, Winter",[7]; [18],40
same,"Plant response rating, Barley, Winter",[7]; [19],0
same,Chamomile plant response rating,[8]; [14],95
same,"Plant response rating, Chamomile",[8]; [15],100
same,"Plant response rating, Chamomile",[8]; [16],100
same,"Plant response rating, Chamomile",[8]; [19],100
same,Galium plant response rating,[9]; [14],100
same,"Plant response rating, Galium",[9]; [15],100
same,"Plant response rating, Galium",[9]; [16],100
same,"Plant response rating (scale of 0 to 100), Galium","[9]; Preemergence, 31 g ai/ha",0
same,"Plant response rating (scale of 0 to 100), Galium","[9]; Preemergence, 62 g ai/ha",25
same,"Plant response rating, Galium",[9]; [17],40
same,"Plant response rating, Galium",[9]; [18],85
same,"Plant response rating, Galium",[9]; [19],100
same,Canarygrass plant response rating,[10]; [14],50
same,"Plant response rating, Canarygrass",[10]; [15],80
same,"Plant response rating, Canarygrass",[10]; [16],90
same,"Plant response rating (scale of 0 to 100), Canarygrass","[10]; Preemergence, 31 g ai/ha",65
same,"Plant response rating (scale of 0 to 100), Canarygrass","[10]; Preemergence, 62 g ai/ha",85
same,"Plant response rating, Canarygrass",[10]; [17],90
same,"Plant response rating, Canarygrass",[10]; [18],100
same,"Plant response rating, Canarygrass",[10]; [19],75
same,"Barley, Spring plant response rating",[11]; [14],0
same,"Plant response rating, Barley, Spring",[11]; [15],5
same,"Plant response rating, Barley, Spring",[11]; [16],10
same,"Plant response rating (scale of 0 to 100), Barley, Spring","[11]; Preemergence, 31 g ai/ha",0
same,"Plant response rating, Barley, Spring",[11]; [20],0
same,"Plant response rating, Barley, Spring",[11]; [17],0
same,"Plant response rating, Barley, Spring",[11]; [18],5
same,"Plant response rating, Barley, Spring",[11]; [19],5
same,Speedwell plant response rating,[12]; [14],65
same,"Plant response rating, Speedwell",[12]; [15],75
same,"Plant response rating, Speedwell",[12]; [16],100
same,"Plant response rating (scale of 0 to 100), Speedwell","[12]; Preemergence, 31 g ai/ha",70
same,"Plant response rating (scale of 0 to 100), Speedwell","[12]; Preemergence, 62 g ai/ha",75
same,"Plant response rating, Speedwell",[12]; [17],100
same,"Plant response rating, Speedwell",[12]; [18],100
same,"Plant response rating, Speedwell",[12]; [19],70
same,"Oat, Wild plant response rating",[13]; [14],80
same,"Plant response rating, Oat, Wild",[13]; [15],90
same,"Plant response rating, Oat, Wild",[13]; [16],95
same,"Plant response rating (scale of 0 to 100), Oat, Wild","[13]; Preemergence, 31 g ai/ha",80
same,"Plant response rating (scale of 0 to 100), Oat, Wild","[13]; Preemergence, 62 g ai/ha",85
same,"Plant response rating, Oat, Wild",[13]; [17],90
same,"Plant response rating, Oat, Wild",[13]; [18],90
same,"Plant response rating, Oat, Wild",[13]; [19],85
